Measurements taken from the supplement of paper PMC10307832.

Columns and labels:
Test in all cases: relative viability (nuclei count vs DMSO), 5 days (fraction); higher = more cells survive
Bicalutamide + OSI-027 = compound: CC(O)(CS(=O)(=O)c1ccc(F)cc1)C(=O)Nc1ccc(C#N)c(C(F)(F)F)c1 [Bicalutamide] + COc1cccc2cc(-c3nc([C@H]4CC[C@H](C(=O)O)CC4)n4ncnc(N)c34)[nH]c12 [OSI-027] (partner 0.5 µM)
Summary of the method: (§1)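 One day after seeding in 1536-well plates, lung cancer cell lines were dosed by pin tool. Dosing was either single-drug or a fixed anchor-drug dose plus five library-drug doses (not always all listed) in √10 steps. After 5 days, nuclei were stained in one fix-and-stain step and counted on 4× images, and relative viability is the nuclei count of treated wells over that of vehicle wells, given as the median of duplicate plates.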

[1] = compound: C(C(=O)C(=O)O)Br [Bromopyruvate] + Nc1nc2[nH]cc(CCc3ccc(C(=O)N[C@@H](CCC(=O)O)C(=O)O)cc3)c2c(=O)[nH]1 [Pemetrexed] (partner 0.2 µM)
Summary of the method: as §1

[2] = compound: C(C(=O)C(=O)O)Br [Bromopyruvate] + C[C@@H](Oc1cc(-c2cnn(C3CCNCC3)c2)cnc1N)c1c(Cl)ccc(F)c1Cl [Crizotinib] (partner 1 µM)
Summary of the method: as §1

[3] = compound: C(C(=O)C(=O)O)Br [Bromopyruvate] + CCNC(=O)c1noc(-c2cc(C(C)C)c(O)cc2O)c1-c1ccc(CN2CCOCC2)cc1 [Luminespib] (partner 0.01 µM)
Summary of the method: as §1

Row | Cell Line | relative viability (Bicalutamide + OSI-027; first compound 0.08 µM) | relative viability (Bicalutamide + OSI-027; first compound 0.253 µM) | relative viability (Bicalutamide + OSI-027; first compound 0.8 µM) | relative viability (Bicalutamide + OSI-027; first compound 2.53 µM) | relative viability ([1]; first compound 1 µM) | relative viability ([1]; first compound 3.162 µM) | relative viability ([1]; first compound 10 µM) | relative viability ([1]; first compound 31.62 µM) | relative viability ([1]; first compound 100 µM) | relative viability ([2]; first compound 1 µM) | relative viability ([2]; first compound 3.162 µM) | relative viability ([2]; first compound 10 µM) | relative viability ([2]; first compound 31.62 µM) | relative viability ([2]; first compound 100 µM) | relative viability ([3]; first compound 1 µM) | relative viability ([3]; first compound 3.162 µM) | relative viability ([3]; first compound 10 µM) | relative viability ([3]; first compound 31.62 µM) | relative viability ([3]; first compound 100 µM)
1 | 201T | 0.727 | 0.609 | 0.735 | 0.736 | 0.327 | 0.345 | 0.323 | 0.357 | 0.297 | 1.06 | 1.03 | 1.02 | 1.02 | 1.08 | 1.04 | 1.04 | 1.08 | 1.05 | 1.12
2 | A549 |  |  |  |  |  |  |  |  |  | 0.731 | 0.806 | 0.858 | 0.754 | 0.736 |  |  |  |  | 
3 | A-427 | 0.489 | 0.479 | 0.584 | 0.398 | 1.05 | 0.975 | 1.05 | 0.863 | 1.07 | 0.878 | 0.873 | 0.82 | 0.741 | 0.793 | 0.763 | 1.04 | 0.918 | 0.971 | 0.817
4 | ABC-1 | 0.46 | 0.448 | 0.45 | 0.454 |  |  |  |  |  | 1.47 | 1.13 |  | 1.05 | 0.636 | 0.519 | 0.823 | 0.575 | 0.499 | 0.234
5 | BEN | 0.265 | 0.299 | 0.274 | 0.276 | 0.87 | 0.656 | 0.833 | 0.62 | 0.753 | 0.875 | 0.935 | 0.99 | 0.753 | 1.01 | 0.587 | 0.342 | 0.66 | 0.303 | 0.295
6 | CAL-12T | 0.574 | 0.638 | 0.72 | 0.431 | 1.26 | 1.05 | 1.25 | 1.1 | 1.05 | 0.663 | 0.663 | 0.743 | 0.48 | 0.505 | 0.375 | 0.421 | 0.606 | 0.285 | 0.357
7 | COR-L23 | 0.814 | 0.751 | 0.955 | 0.705 | 0.184 | 0.194 | 0.195 | 0.183 | 0.202 | 0.564 | 0.597 | 0.717 | 0.713 | 0.336 | 0.611 | 0.602 | 0.815 | 0.694 | 0.119
8 | COR-L 105 | 0.644 | 0.555 | 0.614 | 0.572 | 1.25 | 1.19 | 1.1 | 1 | 0.532 | 0.716 | 1.09 | 0.739 | 0.583 | 0.439 | 0.775 | 0.827 | 0.925 | 0.692 | 0.552
9 | Calu-6 |  |  |  |  |  |  |  |  |  | 0.659 | 0.843 | 0.938 | 0.79 | 0.546 |  |  |  |  | 
10 | ChaGo-K-1 | 0.566 | 0.48 | 0.631 | 0.516 | 0.266 | 0.254 | 0.261 | 0.27 | 0.259 | 1.09 | 1.14 | 1.17 | 1.1 | 1.17 | 0.565 | 0.697 | 0.646 | 0.705 | 0.417
11 | EBC-1 |  |  |  |  |  |  |  |  |  | 0.235 | 0.218 | 0.187 | 0.187 | 0.196 |  |  |  |  | 
